Measured values published in ChEMBL document CHEMBL4507293 (2021).

Legend:
[1] = target: Sigma intracellular receptor 2 (Homo sapiens, UniProt Q5BJF2); experiment: GPCRScan assay: inhibition of Sigma 2; design: radioligand conc. used [nm] 5.0, parental cells HEKT
[2] = target: High affinity cGMP-specific 3',5'-cyclic phosphodiesterase 9A (Homo sapiens, UniProt O76083); experiment: Biochemical assay (PDE9A)
[3] = target: RAC-alpha serine/threonine-protein kinase (Homo sapiens) (UniProt P31749); settings: Compound concentration 100.0 nM
[4] = target: RAC-beta serine/threonine-protein kinase (Homo sapiens) (UniProt P31751); settings: Compound concentration 100.0 nM
[5] = target: Bone morphogenetic protein receptor type-1A (Homo sapiens) (UniProt P36894); settings: Compound concentration 100.0 nM
[6] = target: Cyclin-dependent kinase 9 (Homo sapiens) (UniProt P50750); settings: Compound concentration 100.0 nM
[7] = target: Serine/threonine-protein kinase Chk2 (Homo sapiens) (UniProt O96017); settings: Compound concentration 100.0 nM
[8] = target: Macrophage colony-stimulating factor 1 receptor (Homo sapiens) (UniProt P07333); settings: Compound concentration 100.0 nM
[9] = target: Tyrosine-protein kinase CSK (Homo sapiens) (UniProt P41240); settings: Compound concentration 100.0 nM
Sequence of Tyrosine-protein kinase CSK (Homo sapiens) (P41240 2-450 limits assumed): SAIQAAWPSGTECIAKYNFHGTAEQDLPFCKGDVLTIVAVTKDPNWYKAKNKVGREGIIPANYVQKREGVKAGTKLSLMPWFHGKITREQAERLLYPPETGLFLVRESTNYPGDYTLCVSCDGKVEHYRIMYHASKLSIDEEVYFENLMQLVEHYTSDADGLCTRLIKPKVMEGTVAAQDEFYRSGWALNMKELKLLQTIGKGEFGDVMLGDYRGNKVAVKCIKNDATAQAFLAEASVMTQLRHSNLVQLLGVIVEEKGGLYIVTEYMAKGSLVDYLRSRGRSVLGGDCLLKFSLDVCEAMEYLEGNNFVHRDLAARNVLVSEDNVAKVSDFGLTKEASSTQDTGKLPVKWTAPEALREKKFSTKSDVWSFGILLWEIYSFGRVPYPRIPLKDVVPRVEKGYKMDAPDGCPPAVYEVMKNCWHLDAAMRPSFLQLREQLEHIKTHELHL

[10] = test system: Epidermal growth factor receptor (Homo sapiens), P00533 [G719S]; settings: Compound concentration 100.0 nM
[11] = test system: Epidermal growth factor receptor (Homo sapiens), P00533 [L858R]; settings: Compound concentration 100.0 nM
[12] = test system: Epidermal growth factor receptor (Homo sapiens), P00533 [L861Q]; settings: Compound concentration 100.0 nM
[13] = target: Ephrin type-A receptor 1 (Homo sapiens) (UniProt P21709); settings: Compound concentration 100.0 nM
[14] = target: Homeodomain-interacting protein kinase 1 (Homo sapiens) (UniProt Q86Z02); settings: Compound concentration 100.0 nM
Sequence of Homeodomain-interacting protein kinase 1 (Homo sapiens) (Q86Z02 whole entry, looked up): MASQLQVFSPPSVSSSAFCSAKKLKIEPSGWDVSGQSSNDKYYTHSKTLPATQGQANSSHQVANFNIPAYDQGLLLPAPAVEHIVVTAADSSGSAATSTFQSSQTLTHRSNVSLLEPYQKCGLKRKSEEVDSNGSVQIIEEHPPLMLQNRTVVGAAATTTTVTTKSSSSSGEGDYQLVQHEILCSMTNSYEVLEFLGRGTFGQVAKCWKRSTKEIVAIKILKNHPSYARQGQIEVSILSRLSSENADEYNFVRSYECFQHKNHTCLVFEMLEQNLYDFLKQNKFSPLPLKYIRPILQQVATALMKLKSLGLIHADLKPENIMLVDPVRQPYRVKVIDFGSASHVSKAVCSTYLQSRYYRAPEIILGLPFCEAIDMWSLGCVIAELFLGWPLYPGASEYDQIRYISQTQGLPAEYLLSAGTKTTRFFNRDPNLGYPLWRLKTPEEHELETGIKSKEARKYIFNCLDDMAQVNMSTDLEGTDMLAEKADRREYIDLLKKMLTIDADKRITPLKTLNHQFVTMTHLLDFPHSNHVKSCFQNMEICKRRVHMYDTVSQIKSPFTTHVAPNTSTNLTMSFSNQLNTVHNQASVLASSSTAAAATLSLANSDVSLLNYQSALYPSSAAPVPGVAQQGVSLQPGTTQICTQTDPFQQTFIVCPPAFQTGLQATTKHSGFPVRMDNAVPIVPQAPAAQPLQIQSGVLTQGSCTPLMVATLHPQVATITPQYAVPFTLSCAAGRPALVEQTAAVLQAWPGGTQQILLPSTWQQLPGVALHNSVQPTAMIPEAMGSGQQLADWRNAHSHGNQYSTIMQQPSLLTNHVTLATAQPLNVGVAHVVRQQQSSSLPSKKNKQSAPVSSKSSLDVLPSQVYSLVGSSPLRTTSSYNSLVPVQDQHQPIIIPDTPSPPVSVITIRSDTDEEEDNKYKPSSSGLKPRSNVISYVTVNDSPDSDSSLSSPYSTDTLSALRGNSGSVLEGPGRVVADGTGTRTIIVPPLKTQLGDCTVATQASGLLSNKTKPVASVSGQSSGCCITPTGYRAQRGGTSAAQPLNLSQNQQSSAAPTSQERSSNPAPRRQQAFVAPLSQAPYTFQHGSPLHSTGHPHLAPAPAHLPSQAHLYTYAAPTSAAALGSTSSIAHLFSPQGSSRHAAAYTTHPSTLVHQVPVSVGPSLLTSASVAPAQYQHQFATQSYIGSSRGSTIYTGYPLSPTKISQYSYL

[15] = target: Tyrosine-protein kinase JAK2 (Homo sapiens) (UniProt O60674); settings: Compound concentration 100.0 nM
[16] = target: Mitogen-activated protein kinase 9 (Homo sapiens) (UniProt P45984); settings: Compound concentration 100.0 nM
[17] = target: Mast/stem cell growth factor receptor Kit (Homo sapiens) (UniProt P10721); settings: Compound concentration 100.0 nM
[18] = target: Tyrosine-protein kinase Lck (Homo sapiens) (UniProt P06239); settings: Compound concentration 100.0 nM
[19] = target: Serine/threonine-protein kinase 10 (Homo sapiens) (UniProt O94804); settings: Compound concentration 100.0 nM
[20] = test system: Hepatocyte growth factor receptor (Homo sapiens), P08581 [M1250T]; settings: Compound concentration 100.0 nM
[21] = target: Muscle, skeletal receptor tyrosine-protein kinase (Homo sapiens) (UniProt O15146); settings: Compound concentration 100.0 nM
Sequence of Muscle, skeletal receptor tyrosine-protein kinase (Homo sapiens) (O15146 whole entry): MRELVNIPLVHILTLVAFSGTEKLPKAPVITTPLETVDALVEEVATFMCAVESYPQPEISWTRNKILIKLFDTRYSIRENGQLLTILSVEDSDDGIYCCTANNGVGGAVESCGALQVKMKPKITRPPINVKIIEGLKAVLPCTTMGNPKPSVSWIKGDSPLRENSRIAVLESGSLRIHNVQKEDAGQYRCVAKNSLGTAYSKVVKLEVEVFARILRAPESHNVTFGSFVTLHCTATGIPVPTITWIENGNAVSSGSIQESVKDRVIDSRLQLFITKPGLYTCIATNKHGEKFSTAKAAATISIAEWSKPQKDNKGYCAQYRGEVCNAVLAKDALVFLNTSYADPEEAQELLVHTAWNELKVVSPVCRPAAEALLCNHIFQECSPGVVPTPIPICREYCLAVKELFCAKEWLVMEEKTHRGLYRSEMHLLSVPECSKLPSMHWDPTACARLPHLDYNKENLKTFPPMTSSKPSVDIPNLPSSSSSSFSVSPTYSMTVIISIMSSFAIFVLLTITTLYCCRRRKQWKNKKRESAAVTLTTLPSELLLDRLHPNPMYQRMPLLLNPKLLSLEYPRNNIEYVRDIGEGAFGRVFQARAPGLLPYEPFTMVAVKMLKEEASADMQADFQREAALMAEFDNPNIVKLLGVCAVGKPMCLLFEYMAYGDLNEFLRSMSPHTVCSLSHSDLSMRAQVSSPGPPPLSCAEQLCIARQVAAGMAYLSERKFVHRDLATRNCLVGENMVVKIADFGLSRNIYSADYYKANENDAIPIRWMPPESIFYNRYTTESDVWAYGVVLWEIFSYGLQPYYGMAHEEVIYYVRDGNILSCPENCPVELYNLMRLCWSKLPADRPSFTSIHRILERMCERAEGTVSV

[22] = target: Myosin-IIIa (Homo sapiens) (UniProt Q8NEV4); settings: Compound concentration 100.0 nM
[23] = target: Serine/threonine-protein kinase NIM1 (Homo sapiens) (UniProt Q8IY84); settings: Compound concentration 100.0 nM
[24] = target: Mitogen-activated protein kinase 14 (Homo sapiens) (UniProt Q16539); settings: Compound concentration 100.0 nM
[25] = target: Platelet-derived growth factor receptor alpha (Homo sapiens) (UniProt P16234); settings: Compound concentration 100.0 nM
[26] = target: Phosphatidylinositol 3-kinase C2 domain-containing subunit gamma (Homo sapiens) (UniProt O75747); settings: Compound concentration 100.0 nM
[27] = target: Phosphatidylinositol 4,5-bisphosphate 3-kinase catalytic subunit alpha isoform (Homo sapiens) (UniProt P42336); settings: Compound concentration 100.0 nM
[28] = test system: Phosphatidylinositol 4,5-bisphosphate 3-kinase catalytic subunit alpha isoform (Homo sapiens), P42336 [E545K]; settings: Compound concentration 100.0 nM
[29] = test system: Phosphatidylinositol 4,5-bisphosphate 3-kinase catalytic subunit alpha isoform (Homo sapiens), P42336 [Q546K]; settings: Compound concentration 100.0 nM
[30] = target: Phosphatidylinositol 4,5-bisphosphate 3-kinase catalytic subunit beta isoform (Homo sapiens) (UniProt P42338); settings: Compound concentration 100.0 nM
[31] = target: Serine/threonine-protein kinase pim-3 (Homo sapiens) (UniProt Q86V86); settings: Compound concentration 100.0 nM
[32] = target: Rho-associated protein kinase 2 (Homo sapiens) (UniProt O75116); settings: Compound concentration 100.0 nM
Sequence of Rho-associated protein kinase 2 (Homo sapiens) (O75116 whole entry, looked up): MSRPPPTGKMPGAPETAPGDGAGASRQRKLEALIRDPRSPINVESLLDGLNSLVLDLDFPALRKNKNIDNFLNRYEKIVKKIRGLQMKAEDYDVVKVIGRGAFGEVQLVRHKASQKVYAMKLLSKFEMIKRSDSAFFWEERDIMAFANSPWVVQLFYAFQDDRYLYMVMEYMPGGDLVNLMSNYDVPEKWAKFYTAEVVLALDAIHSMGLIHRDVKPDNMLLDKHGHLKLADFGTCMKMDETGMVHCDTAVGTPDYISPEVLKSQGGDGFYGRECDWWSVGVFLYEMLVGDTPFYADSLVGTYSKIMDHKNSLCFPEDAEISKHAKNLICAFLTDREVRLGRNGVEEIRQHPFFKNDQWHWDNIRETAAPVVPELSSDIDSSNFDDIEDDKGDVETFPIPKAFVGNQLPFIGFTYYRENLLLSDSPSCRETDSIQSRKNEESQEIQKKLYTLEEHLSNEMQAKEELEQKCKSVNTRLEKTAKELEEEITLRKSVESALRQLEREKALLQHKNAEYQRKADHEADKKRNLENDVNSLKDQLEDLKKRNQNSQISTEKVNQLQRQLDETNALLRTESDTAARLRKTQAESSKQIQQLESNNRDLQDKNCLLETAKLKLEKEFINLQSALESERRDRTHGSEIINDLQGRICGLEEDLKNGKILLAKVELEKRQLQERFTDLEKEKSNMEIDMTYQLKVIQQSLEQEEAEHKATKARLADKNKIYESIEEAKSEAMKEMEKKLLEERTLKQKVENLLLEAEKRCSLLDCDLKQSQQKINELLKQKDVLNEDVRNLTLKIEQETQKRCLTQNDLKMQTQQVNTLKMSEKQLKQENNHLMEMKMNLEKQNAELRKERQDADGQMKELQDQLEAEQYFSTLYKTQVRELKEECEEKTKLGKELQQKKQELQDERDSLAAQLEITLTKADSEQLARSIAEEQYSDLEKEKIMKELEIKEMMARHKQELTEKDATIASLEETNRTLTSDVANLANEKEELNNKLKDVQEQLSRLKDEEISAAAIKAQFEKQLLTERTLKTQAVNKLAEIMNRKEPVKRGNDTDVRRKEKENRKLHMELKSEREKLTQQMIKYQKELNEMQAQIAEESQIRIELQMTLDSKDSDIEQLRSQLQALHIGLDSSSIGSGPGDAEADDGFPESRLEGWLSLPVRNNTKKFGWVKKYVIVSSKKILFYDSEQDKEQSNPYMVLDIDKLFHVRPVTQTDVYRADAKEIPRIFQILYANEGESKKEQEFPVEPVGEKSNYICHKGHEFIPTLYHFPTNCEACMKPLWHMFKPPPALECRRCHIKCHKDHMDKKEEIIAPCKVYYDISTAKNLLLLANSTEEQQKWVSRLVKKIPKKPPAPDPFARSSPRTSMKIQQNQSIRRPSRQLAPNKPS

[33] = target: Ribosomal protein S6 kinase alpha-1 (Homo sapiens) (UniProt Q15418); settings: Compound concentration 100.0 nM
[34] = target: Ribosomal protein S6 kinase alpha-6 (Homo sapiens) (UniProt Q9UK32); settings: Compound concentration 100.0 nM
[35] = target: STE20-like serine/threonine-protein kinase (Homo sapiens) (UniProt Q9H2G2); settings: Compound concentration 100.0 nM
[36] = target: Serine/threonine-protein kinase 33 (Homo sapiens) (UniProt Q9BYT3); settings: Compound concentration 100.0 nM
Sequence of Serine/threonine-protein kinase 33 (Homo sapiens) (Q9BYT3 whole entry, looked up): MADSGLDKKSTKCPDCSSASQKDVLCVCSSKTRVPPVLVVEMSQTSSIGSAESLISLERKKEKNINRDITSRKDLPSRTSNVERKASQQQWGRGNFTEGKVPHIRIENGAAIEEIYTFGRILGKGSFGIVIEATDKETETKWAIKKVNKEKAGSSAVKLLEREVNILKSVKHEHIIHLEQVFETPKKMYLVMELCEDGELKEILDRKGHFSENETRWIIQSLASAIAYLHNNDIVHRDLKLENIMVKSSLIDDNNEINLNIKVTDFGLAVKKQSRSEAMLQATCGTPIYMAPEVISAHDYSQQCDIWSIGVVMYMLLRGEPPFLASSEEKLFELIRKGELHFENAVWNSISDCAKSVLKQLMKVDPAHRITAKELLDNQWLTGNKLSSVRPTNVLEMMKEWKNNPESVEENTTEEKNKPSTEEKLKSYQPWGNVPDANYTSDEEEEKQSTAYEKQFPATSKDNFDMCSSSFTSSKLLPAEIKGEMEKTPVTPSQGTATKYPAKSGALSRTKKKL

[37] = target: Tyrosine-protein kinase SYK (Homo sapiens) (UniProt P43405); settings: Compound concentration 100.0 nM
[38] = target: TGF-beta receptor type-1 (Homo sapiens) (UniProt P36897); settings: Compound concentration 100.0 nM
[39] = target: Tyrosine-protein kinase receptor Tie-1 (Homo sapiens) (UniProt P35590); settings: Compound concentration 100.0 nM
[40] = target: Testis-specific serine/threonine-protein kinase 1 (Homo sapiens) (UniProt Q9BXA7); settings: Compound concentration 100.0 nM
[41] = target: Tyrosine-protein kinase TXK (Homo sapiens) (UniProt P42681); settings: Compound concentration 100.0 nM
[42] = target: Serine/threonine-protein kinase WNK2 (Homo sapiens) (UniProt Q9Y3S1); settings: Compound concentration 100.0 nM
[43] = target: 5-hydroxytryptamine receptor 2B (Homo sapiens) (UniProt P41595); settings: Compound concentration 10.0 uM
[44] = target: Mu-type opioid receptor (Homo sapiens) (UniProt P35372); settings: Compound concentration 10.0 uM
Sequence of Mu-type opioid receptor (Homo sapiens) (P35372 whole entry): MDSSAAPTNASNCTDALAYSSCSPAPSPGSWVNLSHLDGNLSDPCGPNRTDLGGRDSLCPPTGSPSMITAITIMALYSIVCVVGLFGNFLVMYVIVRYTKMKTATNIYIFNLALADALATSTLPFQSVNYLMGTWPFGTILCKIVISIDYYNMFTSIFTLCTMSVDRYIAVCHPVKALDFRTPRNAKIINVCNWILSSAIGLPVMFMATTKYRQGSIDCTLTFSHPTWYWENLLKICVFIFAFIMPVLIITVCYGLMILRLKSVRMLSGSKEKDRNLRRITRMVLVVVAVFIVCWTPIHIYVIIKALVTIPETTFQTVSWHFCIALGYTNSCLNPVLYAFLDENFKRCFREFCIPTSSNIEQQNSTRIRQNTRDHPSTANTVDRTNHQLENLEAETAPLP

[45] = target: Alpha-1B adrenergic receptor (Homo sapiens) (UniProt P35368); settings: Compound concentration 10.0 uM

Sequence of Sigma intracellular receptor 2 (Q5BJF2 whole entry): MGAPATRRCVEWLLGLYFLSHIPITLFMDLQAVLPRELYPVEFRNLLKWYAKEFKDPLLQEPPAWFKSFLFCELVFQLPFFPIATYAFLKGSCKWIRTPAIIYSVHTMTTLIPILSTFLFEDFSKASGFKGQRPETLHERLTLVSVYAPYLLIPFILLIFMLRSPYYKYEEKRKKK

SMILES: CC(C)CC(=O)N1CCc2nc(-c3ccc(Br)cc3)nc(N(C)Cc3ccccc3)c2C1 [THPP-1-NC]
- Ki [1]: 0.708 µM
- Ki [2]: > 54.6 µM (not active)
- residual activity [3]: 92%
- residual activity [4]: 100%
- residual activity [5]: 93%
- residual activity [6]: 100%
- residual activity [7]: 100%
- residual activity [8]: 100%
- residual activity [9]: 100%
- residual activity [10]: 100%
- residual activity [11]: 94%
- residual activity [12]: 100%
- residual activity [13]: 100%
- residual activity [14]: 64%
- residual activity [15]: 100%
- residual activity [16]: 72%
- residual activity [17]: 100%
- residual activity [18]: 100%
- residual activity [19]: 100%
- residual activity [20]: 70%
- residual activity [21]: 100%
- residual activity [22]: 96%
- residual activity [23]: 100%
- residual activity [24]: 100%
- residual activity [25]: 98%
- residual activity [26]: 100%
- residual activity [27]: 77%
- residual activity [28]: 85%
- residual activity [29]: 97%
- residual activity [30]: 100%
- residual activity [31]: 100%
- residual activity [32]: 74%
- residual activity [33]: 93%
- residual activity [34]: 100%
- residual activity [35]: 100%
- residual activity [36]: 74%
- residual activity [37]: 100%
- residual activity [38]: 100%
- residual activity [39]: 100%
- residual activity [40]: 99%
- residual activity [41]: 100%
- residual activity [42]: 100%
- inhibition [43]: 7.85%
- inhibition [44]: -0.75%
- inhibition [45]: 17.5%

SMILES: COCCOc1nc(-c2ccc(Cl)nc2)nc2c1CN(C(=O)c1ncn3ccccc13)CC2 [THPP-1]
- Ki [1]: 3.35 µM
- Ki [2]: > 50 µM (not active)
- residual activity [3]: 82%
- residual activity [4]: 100%
- residual activity [5]: 82%
- residual activity [6]: 100%
- residual activity [7]: 100%
- residual activity [8]: 100%
- residual activity [9]: 100%
- residual activity [10]: 97%
- residual activity [11]: 83%
- residual activity [12]: 99%
- residual activity [13]: 100%
- residual activity [14]: 90%
- residual activity [15]: 100%
- residual activity [16]: 76%
- residual activity [17]: 100%
- residual activity [18]: 100%
- residual activity [19]: 100%
- residual activity [20]: 71%
- residual activity [21]: 100%
- residual activity [22]: 100%
- residual activity [23]: 100%
- residual activity [24]: 100%
- residual activity [25]: 100%
- residual activity [26]: 100%
- residual activity [27]: 85%
- residual activity [28]: 71%
- residual activity [29]: 87%
- residual activity [30]: 100%
- residual activity [31]: 100%
- residual activity [32]: 76%
- residual activity [33]: 100%
- residual activity [34]: 100%
- residual activity [35]: 100%
- residual activity [36]: 53%
- residual activity [37]: 100%
- residual activity [38]: 100%
- residual activity [39]: 100%
- residual activity [40]: 100%
- residual activity [41]: 100%
- residual activity [42]: 100%
- inhibition [43]: 3.25%
- inhibition [44]: -0.32%
- inhibition [45]: 10.8%
